Point of comparison: `Cn1cncc1C(O)(c1ccc(Cl)cc1)c1ccc2c(c1)c(-c1cccc(Cl)c1)nc1nnnn12` (configuration not stated), melting point 139 °C. Against it:
- CCCCN1C(=O)c2cnc(-c3ccccc3)nc2N(C(=O)CCl)c2ccccc21 — not separable, 139 to 140 °C
- O=C(Nc1noc2ccccc12)N1CCN(c2nc(-c3ccccc3)ns2)CC1 — higher, 234 to 235 °C
- CCCN1CCC(c2c(O)cc(O)c3c(=O)cc(-c4ccccc4Cl)oc23)C1CO (configuration not stated) — lower, 94 to 96 °C
- CCN(CC)C(=O)c1c(-c2ccccc2)[nH]c2ccccc12 — higher, 224 to 226 °C
- O=C1c2ccccc2CN1C1CCN(c2ccc(C(OCc3ccccn3)c3ccccc3)cc2)CC1 (configuration not stated) — higher, 149 to 151 °C
- C[Si](C)(C)c1cc(C(F)=C(F)C(F)(F)F)c(S(N)(=O)=O)s1 — not separable, 129 to 140 °C
- CNC(=NC#N)NCCSCc1cc(C)c(CN(C)C)o1 — lower, 86 to 88 °C
- COc1c(C)cc([N+](=O)[O-])c(NC(C)C)c1[N+](=O)[O-] — lower, 77.5 to 79 °C
- CCOC(=O)c1cc2c(C(F)(F)F)cc(CO)cc2n1C — higher, 158 to 159 °C
- CC(=O)OCCNc1ccc(Cl)cc1C(=O)c1ccccc1F — lower, 48 to 55 °C
- COc1ccc(-c2c(N)cnc3ccc(Cl)cc23)cc1OC — higher, 187 to 190 °C
- Cc1cc(Cl)ccc1-n1nc(O)c2[nH]c3cc(Cl)ccc3c(=O)c2c1=O — higher, 279 to 281 °C
- Cc1cc(C)c(-n2c(C)cc(C)c(C#N)c2=O)cc1NS(=O)(=O)C(F)(F)F — higher, 274 to 276 °C
- CCCc1c(C2CCC(c3ccccc3)(N(C)C)CC2)[nH]c2ccccc12 (configuration not stated) — higher, 177 to 181 °C
- CCCNC(=Nc1ccccc1N1CCOCC1)NCCC — higher, 212 to 214 °C
- CCNC(=O)C(C)(Cc1cc2ccccc2s1)C(N)=O (configuration not stated) — higher, 141 to 143 °C
- O=c1c(-c2cccc(Cl)c2)coc2cc(O)c(O)cc12 — higher, 308 °C
- CCNC(=S)Nc1ccc2[nH]c3cnc(C(=O)OC(C)C)c(CC)c3c2c1 — higher, 234 to 236 °C
- O=[N+]([O-])c1ccc2c(c1)NCC(C(F)F)(C(F)F)O2 — higher, 150 to 152 °C
- CCc1oc2ccccc2c1C(=O)NCc1ccc2cc(O)ccc2c1 — higher, 203 to 205 °C
- C=C1C(O)C(CO)OC1n1cc(F)c(N)nc1=O (configuration not stated) — higher, 185 to 187 °C
- CCCCc1oc2ccc([N+](=O)[O-])cc2c1C(=O)c1ccc(OCCCO)cc1 — lower, 76 to 80 °C
- NC(=O)c1ccc(O)c(I)c1 — lower, 90 to 95 °C
- Cc1nc(NC(=O)NC(C)(C)C)ccc1-c1ccncc1 — higher, 297 to 300 °C
- CC12CCC(OC(=O)c3ccccc3)CC1=CCC1C2CCC2(C)C(=NO)CCC12 (configuration not stated) — higher, 165 to 170 °C
- CCN(C(=O)OC(C)(C)C)C(Cc1ccccc1)C(=O)NC(CCSC)C(=O)NCC(=O)NC(Cc1ccccc1)C(=O)NC1C2CC3CC(C2)CC1C3 (configuration not stated) — higher, 175 to 178 °C
- Cc1ccc(S(=O)(=O)N2[C@@H](CCO)CC[C@H]2c2ccc(F)cc2)cc1 (racemic) — lower, 129 °C
- CCCCN(c1cccc(-c2ccnc3c([N+](=O)[O-])cnn23)c1)S(=O)(=O)c1ccc(OC)cc1 — higher, 189 to 190 °C
- O=C(NC1CN2CCC1CC2)c1cccc2oc(-c3ccc(Cl)cc3)nc12 (configuration not stated) — higher, 194 to 196 °C
- CCOC(=O)C1=C(C)NC(COC(=O)c2ccccc2)=C(C(=O)OCC)C1c1ccccc1[N+](=O)[O-] (configuration not stated) — higher, 156 to 157 °C
- Cc1ccnc(NC(c2ccc(C(F)(F)F)cc2)c2ccc3cccnc3c2O)c1 (configuration not stated) — lower, 104 to 107 °C
- CNC(=O)Nc1snc(C)c1C(=O)OC — higher, 236 to 237 °C
- CNc1cc(F)ccc1C(=O)CS(=O)(=O)N(C)C — lower, 120 to 124 °C
- Cc1c(C(=O)c2ccc(Cl)c(S(N)(=O)=O)c2)sc2ccccc12 — higher, 210 °C
- O=C(CCCN1CCC(c2ccccc2)CC1)c1ccc2c(c1)Cc1cc(C(=O)CCCN3CCC(c4ccccc4)CC3)ccc1-2 — higher, 190 to 192 °C
- Nc1c(C(=O)c2ccccc2)cnc2[nH]ncc12 — higher, 282 to 283 °C

Source: a melting point compilation (Tetko et al.; mined from patent text by program, amines drawn as free bases though some values may be those of a salt)
